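Grown in 96-well plates, cells were treated for 48 hours with each compound at five concentrations. Insufficient inhibition: endpoint recorded as highest concentration tested. Definition used: TGI = concentration required for complete inhibition of growth.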
What was measured:
Assay in all cases: DTP human tumour cell line panel, 48 h
[1] = tested on: EKVX NSCLC
[2] = tested on: NCI-H460 lung
[3] = tested on: PC-3 prostate
[4] = tested on: SF-295 CNS
[5] = tested on: SK-MEL-2 melanoma
[6] = tested on: SK-MEL-28 melanoma
[7] = tested on: DLD-1 colon
[8] = tested on: DMS 114 small cell lung
[9] = tested on: DMS 273 small cell lung
[10] = tested on: HOP-18 NSCLC
[11] = tested on: KM20L2 colon
[12] = tested on: LXFL 529 NSCLC
[13] = tested on: M19-MEL melanoma
[14] = tested on: RXF-631 renal
[15] = tested on: SNB-78 CNS
[16] = tested on: XF 498 CNS

Structure (SMILES)	TGI [1] [µM]	TGI [2] [µM]	TGI [3] [µM]	TGI [4] [µM]	TGI [5] [µM]	TGI [6] [µM]	TGI [7] [µM]	TGI [8] [µM]	TGI [9] [µM]	TGI [10] [µM]	TGI [11] [µM]	TGI [12] [µM]	TGI [13] [µM]	TGI [14] [µM]	TGI [15] [µM]	TGI [16] [µM]
C[C@@H](CC(=O)OCc1ccccc1)OC1OC(COC(=O)C(C)(C)C)C(OC(=O)C(C)(C)C)C(OC(=O)C(C)(C)C)C1OC(=O)C(C)(C)C (some centres not stated)	> 100	> 100	> 100	> 100	> 100	> 100	–	–	–	–	–	–	–	–	–	–
CCOC(=O)/C(=C/c1ccccn1)C(=O)c1ccccc1	42.8	> 62.8	–	27.6	28.9	27.3	29.5	28.5	27.3	32.7	51.6	23.5	31.3	28.9	38.9	30.3
O=C1CC(c2ccc(Cl)cc2)=Nc2ccccc2N1	> 100	> 100	–	> 100	> 100	> 100	> 100	> 100	> 100	> 100	> 100	> 100	> 100	> 100	> 100	–
Oc1c(N2CCCCC2)cc(-c2cc(N3CCCCC3)c(O)c3ccccc23)c2ccccc12	> 100	> 100	> 100	> 100	91.6	40.9	–	–	–	–	–	–	–	–	–	–
Cc1c(C)c2c(c(N)c1C#N)C(=O)N(Cc1ccc(S(N)(=O)=O)cc1)C2=O	> 100	> 100	> 100	> 56.6	> 100	> 100	–	–	–	–	–	–	–	–	–	–
O=C(NCCN(CCNC(=O)c1cccc(O)c1O)CCNC(=O)c1cccc(O)c1O)c1cccc(O)c1O	> 100	> 51.6	> 100	> 100	> 100	> 100	–	–	–	–	–	–	–	–	–	–
O=S(=O)(/N=C(\NO)Nc1ccc(Cl)cc1)c1cc(C(F)(F)F)cc(C(F)(F)F)c1	30.6	73.6	31.5	36.4	32.7	39	–	–	–	–	–	–	–	–	–	–
CC(C)(C)OC(=O)N(CCCCNC(=O)C(F)(F)F)CCCNC(=O)C(F)(F)F	> 100	> 100	> 100	> 100	> 100	> 100	–	–	–	–	–	–	–	–	–	–
CSc1nncc(-c2cc3c(c(SC)n2)CCCC3)n1	> 100	> 100	> 100	> 100	> 100	> 100	–	–	–	–	–	–	–	–	–	–
CC(C)(CN1CCCCC1)C(=O)/C=C/c1ccc(Br)cc1	9.13	> 20.4	–	17.4	9.04	11.7	10.3	3.44	4.92	6.83	6.85	3.52	> 51.8	–	31.6	6.21
COc1ccc2ccccc2c1C1=NC(C)(C)CO1	> 100	> 100	–	> 100	> 100	> 100	> 100	–	–	> 100	> 100	> 100	> 100	> 100	–	> 100
COC(=O)c1c(C)cccc1/C=C1\Cc2ccc(C)c(C)c2C1=O	> 100	> 100	> 100	> 100	> 100	> 100	–	–	–	–	–	–	–	–	–	–
COC(=O)[C@@]12OC[C@]34C([C@@H](O)C1O)[C@@]1(C)CC(=O)C(OC(=O)CC(C)C(F)(F)F)=C(C)C1C[C@H]3OC(=O)[C@H](O)[C@H]42 (some centres not stated)	> 62.5	> 62.5	–	42.5	15.5	18.2	–	18.5	11.2	29.2	> 62.5	> 62.5	6.25	–	> 62.5	5.18
COC(=O)[C@@H]1[C@@H]2NC(=S)N[C@@]1(C)Oc1ccccc12	> 100	> 100	> 100	> 100	> 100	> 100	–	–	–	–	–	–	–	–	–	–
CSC(=O)/C=C1\SS/C(=C\C(=O)SC)S1	6.68	7.61	9.32	13.7	4.93	6.34	–	–	–	–	–	–	–	–	–	–
COC(=O)C(C(=O)C(=O)Nc1c(Cl)cc([N+](=O)[O-])cc1Cl)c1csc(-n2nc(C3=CCCCC3)cc2-c2ccccc2)n1 (configuration not stated)	94.7	> 100	–	> 100	> 100	–	> 100	–	> 100	> 100	> 100	> 100	> 100	> 100	> 100	–
NC1=NC(Cn2nc(-c3ccccc3)c3ccccc3c2=O)=NNC(=O)N1	–	> 100	–	> 100	> 100	> 100	> 100	–	> 100	> 100	–	> 100	> 100	–	> 100	–
Cc1c(C)c(S(=O)(=O)N(CCCCN)OCCCN)c(C)c2c1OC(C)(C)CC2	31.9	41.2	23.3	40.6	24.9	50.7	–	–	–	–	–	–	–	–	–	–
CC(=O)c1ccc(Nc2c3c(nc4ccccc24)CCCC3)cc1	> 84.6	> 66.8	> 100	> 43.2	> 100	> 100	–	–	–	–	–	–	–	–	–	–
